Patent US5453444A, “Method to mitigate or eliminate weight loss” (Otsuka Pharmaceutical Co., Ltd., priority 1994, dated 1995)
Where “and” joins values, the source holds several entries; their conditions need not be identical. Equal values may be shown once. Entries after “also recorded” stand apart in the source; their conditions may differ. Where a name gives a salt, the structure may show the parent alone.

How the values were obtained:
[1] = tested on: cachexia-inducing action of CF; conditions: Silva et al., Infection and Immunity 1988; cited from earlier work
[2] = tested on: C-26.IVX cells derived from the colon adenocarcinoma; test: Suramin blocks C-26 mediated cachexia (Example 1); type: in vivo, mice; conditions: 200 mg/kg I.P. d7, 13
Description: Eleven male mice (CD)2F1 obtained from Charles Rivers Laboratories were weighed and then were inoculated with 0.5×10^6 C-26.IVX cells derived from the colon adenocarcinoma (by the procedure described in Strassmann et al., J. Clin. Invest., 89, pp. 1681-84 (May 1992) which is incorporated herein by reference). The day of inoculation was identified as day 0 (d0). On days 7 and 13, five of these mice each received intraperitoneally 0.5 ml of PBS (phosphate buffered saline) and the other six mice each received intraperitoneally 200 mg/kg body weight of suramin diluted in 0.5 ml PBS. On day 19, all the mice were sacrificed and the final total weight, the host weight, the tumor weight, epididymal fat, and dry weight were measured.

[3] = tested on: C-26 cachexia; test: Time course of C-26 mediated weight loss and tumor volume (Example 2); type: in vivo, mice; conditions: 100 mg/kg intraperitoneally days 7 and 12
Description: In subsequent experiments, eight mice obtained from the same source as above were injected with 0.5 ml PBS intraperitoneally and eight other mice from the same source as above were injected with 100 mg/kg body weight of suramin intraperitoneally. The injections were given on days 7 and 12. The weight of the two groups was measured several times a week.

[4] = tested on: C-26 cachexia; test: Dose dependence of C-26 cachexia inhibition (Example 3); type: in vivo, mice; conditions: increasing amounts intraperitoneally; day 17; FIG. 3
Description: Mice were obtained and injected with C-26 cells as set forth above for Example 1, and then were put into four groups of five mice each. The mice were injected intraperitoneally with increasing amounts of suramin as indicated in FIG. 3 except for the control mice. On day 17, the total weight of each group was compared to a control group of five mice which had been injected with 0.5 ml PBS intraperitoneally.

[5] = tested on: turpentine-induced wasting; test: Turpentine-induced wasting (Example 4); type: in vivo, mice; conditions: 100 mg/kg intraperitoneally day -3, 0.1 ml turpentine i.m. day 0, FIG. 4
Description: (See Gershenwald et al., "Interleukin 1 receptor blockade attenuates the host inflammatory response" Proc. Natl. Acad. Sci., 87 4966-70, (July, 1990) for a description of the turpentine-induced wasting procedure). In this experiment, three days before day 0 (day -3), five male (CD)2F1 mice, obtained from Charles Rivers Laboratories, each received intraperitoneally 0.5 ml of PBS. Five other mice obtained from the same source each received intraperitoneally 100 mg/kg body weight suramin diluted with 0.5 ml of PBS.

[6] = tested on: IL-6; test: IL-6 dependent proliferation of B-9 cells (3H-thymidine incorporation); type: cell-based; conditions: for cpm of 3H-thymidine incorporation, B-9 cells: Table 5; for proliferation of B-9 cells in response to IL-6: result in words; for cpm of 3H-thymidine, B-9 cells: Table 3
Description: A standard proliferation assay, Strassmann et al., J. Immunol., 147:1279-1285 (1991), was conducted using 96 well plates The medium used was RPMI with 10% fetal calf serum B-9 cells were added and were cultured for 3 days. The extent of proliferation of B-9 cells was determined by the incorporation of radioactive thymidine as described in Strassmann et al., J. Clin. Invest., 89, pp. 1681-84 (May 1992). […] (See Strassmann et al., J. Clin. Invest., 89, pp. 1681-84 (May 1992), incorporated herein by reference.)
The same procedures set forth in Example 5 was followed except that a different sulfate-containing compound, Pentosan polysulfate, was used.
The same procedure set forth in Example 5 was followed except in this example, Dextran sulfate and Dextran, were used instead of Suramin.

[7] = tested on: IL-6 receptor; test: Radioreceptor assay: binding of 125I-IL-6 to U266 cells; parameters: species or system human; conditions: for binding of radioactive IL-6 to U266 cells: 90 minutes at 4° C., increasing amounts of compound
Description: This experiment analyzed whether suramin inhibits IL-6 bioactivity by interfering with binding to the IL-6 receptor. Into eighteen test tubes was placed U266 indicator cells (obtained from ATCC), a binding buffer, made up of RPMI medium, 0.1 mg BSA and […] Hepes, and 100,000 cpm (0.8 ng) of ^125 I-IL-6. The tubes were divided into six groups of three tubes each and received suramin as follows: group 1 had 300 uM suramin; group 2 had 100 uM suramin; group 3 had 30 uM suramin; group 4 had 10 uM suramin; and group 5 had no suramin, but only medium (control for maximal binding). In addition, group 6 received excess unlabeled IL-6 without suramin for use in determining the background of binding in this assay.
After 90 minutes of incubation at 4° C. and the centrifugation of cells on oil (a standard radioreceptor assay) Strassmann, J. Immunol., 147:1279-1289 (1991), the amount of radioactivity bound to the cells was determined. […] Also, the addition of increasing amounts of suramin prevented the binding of radioactive IL-6 to U266 human myeloma indicator cells in vitro as reflected in the results set forth in FIG. 6.
The same procedure set forth in Example 6 was followed, except that Pentosan polysulfate was used instead of Suramin.

[8] = tested on: 125I-IL-6; test: 125I-IL-6 sequestration in vivo (liver, kidney, spleen radioactivity); parameters: species or system mice; conditions: for Kidney radioactivity / Liver radioactivity / Spleen radioactivity: 5 mg/mouse, mean ± 0.5 range of 2 mice
Description: The ability to prevent binding of IL-6 in vivo was analyzed as follows. Eight mice received 5.0 mg/mouse of suramin intravenously and eight other mice received 0.2 ml PBS/mouse intravenously 0.5 hour. Thereafter, all sixteen of the mice received an injection of 300,000 cpm (2.4 ng) of ^125 I-IL-6. Four mice from each group were sacrificed 30 minutes after receiving the ^125 I-IL-6 and the remaining four mice from each group were sacrificed 60 minutes after receiving the ^125 I-IL-6. The liver, kidney, and spleen were removed and measured for radioactivity (cpm).

[9] = 5.0 mg/mouse intravenously 0.5 hour before 125I-IL-6

C[C@@H]1C[C@H]2[C@@H]3CCC4=CC(=O)C=C[C@]4(C)[C@@]3(F)[C@@H](O)C[C@]2(C)[C@@]1(O)C(=O)CO [Dexamethasone]
cachexia-inducing action of CF [1]: partially inhibit the cachexia-inducing action of CF

Cc1ccc(C(=O)Nc2ccc(S(=O)(=O)O)c3cc(S(=O)(=O)O)cc(S(=O)(=O)O)c23)cc1NC(=O)c1cccc(NC(=O)Nc2cccc(C(=O)Nc3cc(C(=O)Nc4ccc(S(=O)(=O)O)c5cc(S(=O)(=O)O)cc(S(=O)(=O)O)c45)ccc3C)c2)c1 [Suramin, 8-8'-[Carbonylbis[imino-3,1-phenylenecarbonylimino(4-methyl-3,1-phenylene)carbonylimino]]bis-1,3,5-naphthalenetrisulfonic acid hexasodium salt]
% weight loss ([2]; d19, individual mouse): 5.3% and 17.6% and 10.5% and 15.4% and 18.6% and 5.1%
Dry wt ([2]; d19, individual mouse): 7.8 g and 6.5 g and 6.6 g and 6.4 g
Final total wt. ([2]; d19, individual mouse): 25.9 g and 25.2 g and 26.2 g and 25.5 g and 25.4 g and 27.4 g
Host's wt. ([2]; d19, individual mouse): 25.0 g and 23.3 g and 24.2 g and 23.5 g and 23.1 g and 25.8 g
IL-6 ([2]; d19, individual mouse): 292 U/ml and 360 U/ml and 310 U/ml and 535 U/ml and 477 U/ml and 328 U/ml
Serum Glucose ([2]; d19, individual mouse): 128 mg/dL and 114 mg/dL and 100 mg/dL and 110 mg/dL and 109 mg/dL and 116 mg/dL
Tumor wt ([2]; d19, individual mouse): 0.93 g and 1.98 g and 2.08 g and 1.96 g and 2.36 g and 1.64 g
% weight loss ([2]; d19, mean ±SD of six mice): 12.0%
Dry wt ([2]; d19, mean ±SD of six mice): 6.7 ± 0.5 g
Host's wt. ([2]; d19, mean ±SD of six mice): 24.2 g
IL-6 ([2]; d19, mean ±SD of six mice): 384 U/ml
Serum Glucose ([2]; d19, mean ±SD of six mice): 113 ± 9 mg/dL
Tumor wt ([2]; d19, mean ±SD of six mice): 1.82 g
% weight loss ([2]; d19, mean ±SD of six mice, listed as suramin): 12.0±6.0%
Final total wt. ([2]; sacrificed d19, mean ±SD of six mice): 26.9 ± 0.8 g
C-26 mediated weight loss over time ([3]; FIG. 1): inhibited C-26 mediated weight loss in a significant time dependent manner; also recorded: time dependent inhibition of C-26 cachexia
tumor (C-26) growth in vivo (tumor volume) ([3]; FIG. 2): no significant effect on the tumor (C-26) growth in-vivo except on day 19; also recorded: lack of effect
percentage of weight loss (wasting) versus dose [4]: inhibited wasting in a dose dependent manner; also recorded: dose dependent inhibition of C-26 cachexia
turpentine-induced weight loss [5]: exhibited no such weight loss; also recorded: prevention of turpentine-induced wasting
bioactivity of IL-6 (proliferation of B-9 cells) ([6]; preincubated with IL-6, 3 days culture, FIG. 5): inhibits the bioactivity of IL-6; also recorded: inhibition of bioactivity of IL-6
binding of radioactive IL-6 to U266 cells [7]: prevents binding of the IL-6 to the U266 cells in a dose dependent manner; also recorded: prevention of the binding of IL-6 to human myeloma cells
less radioactivity measured in the liver versus PBS [8, 9]: approximately 50%
radioactive IL-6 present in the kidney [8, 9]: increase of radioactive IL-6 present in the kidney
Kidney radioactivity ([8]; Expt. 1, 30 minutes): 70151 ± 125 cpm
Liver radioactivity ([8]; Expt. 1, 30 minutes): 8385 ± 1525 cpm/gm
Spleen radioactivity ([8]; Expt. 1, 30 minutes): 1347 ± 295 cpm
Kidney radioactivity ([8]; Expt. 1, 60 minutes): 36595 ± 1760 cpm
Liver radioactivity ([8]; Expt. 1, 60 minutes): 4275 ± 91 cpm/gm
Spleen radioactivity ([8]; Expt. 1, 60 minutes): 630 ± 6 cpm
Kidney radioactivity ([8]; Expt. 2, 30 minutes): 57287 ± 2849 cpm
Liver radioactivity ([8]; Expt. 2, 30 minutes): 9277 ± 235 cpm/gm
Spleen radioactivity ([8]; Expt. 2, 30 minutes): 1306 ± 4 cpm
Kidney radioactivity ([8]; Expt. 2, 60 minutes): 38254 ± 466 cpm
Liver radioactivity ([8]; Expt. 2, 60 minutes): 5512 ± 379 cpm/gm
Spleen radioactivity ([8]; Expt. 2, 60 minutes): 631 ± 25 cpm

Dextran
cpm of 3H-thymidine incorporation, B-9 cells ([6]; compound 30 μM, IL-6 3 pg/ml): 24007 cpm
cpm of 3H-thymidine incorporation, B-9 cells ([6]; compound 30 μM, IL-6 10 pg/ml): 143003 cpm
cpm of 3H-thymidine incorporation, B-9 cells ([6]; compound 30 μM, IL-6 30 pg/ml): 231856 cpm
cpm of 3H-thymidine incorporation, B-9 cells ([6]; compound 100 μM, IL-6 3 pg/ml): 29577 cpm
cpm of 3H-thymidine incorporation, B-9 cells ([6]; compound 100 μM, IL-6 10 pg/ml): 136191 cpm
cpm of 3H-thymidine incorporation, B-9 cells ([6]; compound 100 μM, IL-6 30 pg/ml): 230321 cpm
cpm of 3H-thymidine incorporation, B-9 cells ([6]; compound 300 μM, IL-6 3 pg/ml): 27015 cpm
cpm of 3H-thymidine incorporation, B-9 cells ([6]; compound 300 μM, IL-6 10 pg/ml): 140903 cpm
cpm of 3H-thymidine incorporation, B-9 cells ([6]; compound 300 μM, IL-6 30 pg/ml): 245701 cpm
proliferation of B-9 cells in response to IL-6 [6]: did not prevent the proliferation of B-9 cells in response to IL-6

Dextran sulfate
cpm of 3H-thymidine incorporation, B-9 cells ([6]; compound 30 μM, IL-6 3 pg/ml): 7603 cpm
cpm of 3H-thymidine incorporation, B-9 cells ([6]; compound 30 μM, IL-6 10 pg/ml): 68066 cpm
cpm of 3H-thymidine incorporation, B-9 cells ([6]; compound 30 μM, IL-6 30 pg/ml): 204155 cpm
cpm of 3H-thymidine incorporation, B-9 cells ([6]; compound 100 μM, IL-6 3 pg/ml): 8075 cpm
cpm of 3H-thymidine incorporation, B-9 cells ([6]; compound 100 μM, IL-6 10 pg/ml): 31678 cpm
cpm of 3H-thymidine incorporation, B-9 cells ([6]; compound 100 μM, IL-6 30 pg/ml): 150233 cpm
cpm of 3H-thymidine incorporation, B-9 cells ([6]; compound 300 μM, IL-6 3 pg/ml): 2461 cpm
cpm of 3H-thymidine incorporation, B-9 cells ([6]; compound 300 μM, IL-6 10 pg/ml): 16573 cpm
cpm of 3H-thymidine incorporation, B-9 cells ([6]; compound 300 μM, IL-6 30 pg/ml): 112835 cpm
proliferation of B-9 cells in response to IL-6 [6]: prevented the proliferation of B-9 cells in response to IL-6

Pentosan polysulfate
cpm of 3H-thymidine, B-9 cells ([6]; compound 300 μM, IL-6 added 1 pg/ml): 1567 cpm
cpm of 3H-thymidine, B-9 cells ([6]; compound 300 μM, IL-6 added 3 pg/ml): 2648 cpm
cpm of 3H-thymidine, B-9 cells ([6]; compound 300 μM, IL-6 added 10 pg/ml): 11456 cpm
cpm of 3H-thymidine, B-9 cells ([6]; compound 300 μM, IL-6 added 30 pg/ml): 60287 cpm
cpm of 3H-thymidine, B-9 cells ([6]; compound 1000 μM, IL-6 added 1 pg/ml): 795 cpm
cpm of 3H-thymidine, B-9 cells ([6]; compound 1000 μM, IL-6 added 3 pg/ml): 1062 cpm
cpm of 3H-thymidine, B-9 cells ([6]; compound 1000 μM, IL-6 added 10 pg/ml): 3586 cpm
cpm of 3H-thymidine, B-9 cells ([6]; compound 1000 μM, IL-6 added 30 pg/ml): 26727 cpm
proliferation of B-9 cells in response to IL-6 [6]: prevented the proliferation of B-9 cells
cpm 125I-IL-6 bound to U266 cells ([7]; 3 μM): 3000 cpm
cpm 125I-IL-6 bound to U266 cells ([7]; 30 μM): 2575 cpm
cpm 125I-IL-6 bound to U266 cells ([7]; 300 μM): 2003 cpm
binding of radioactive IL-6 to U266 cells [7]: inhibited the binding of radioactive IL-6 to U266 human myeloma cells

hIL-6: excess unlabeled IL-6 used for determining the background of binding in the radioreceptor assay
cpm 125I-IL-6 bound to U266 cells ([7]; 270 ng/ml unlabeled competitor (background of binding)): 1416 cpm
